According to paper PMC10460844, “Real‐Time Monitoring of Multitarget Antimicrobial Mechanisms of Peptoids Using Label‐Free Imaging with Optical Diffraction Tomography” (Advanced Science, 2023):
Square brackets hold non-standard residues; d marks the D form. Peptide text beside a SMILES is read from it. Gly(N(CH2)2(3-indolyl)) = O=C(O)CNCCc1c[nH]c2ccccc12; Nspe = C[C@H](NCC(=O)O)c1ccccc1; Nlys = NCCCCNCC(=O)O

Columns and labels:
[1] = system: rat erythrocytes; test: Hemolysis assay; type: cell-based; conditions: for HC10 / HC50: pH 7.4
Description: The hemolysis assay was performed using rat erythrocytes in phosphate‐buffered saline (PBS), as reported by Mendes et al.^[ [45] ^] Animal studies were approved by the Laboratory Animal Resource Center of Gwangju Institute of Science and Technology. Blood was collected from a 13‐week‐old male Sprague‐Dawley rat in tubes containing 158 USP units of sodium heparin to prevent coagulation and centrifuged at 1000 rpm for 10 min at 4 °C. Plasma was removed carefully and erythrocyte pellets were washed three times with PBS (35 mM phosphate, pH 7.4, 150 mM NaCl). Next, 150 µL of a 10% erythrocyte suspension was mixed with 50 µL of serially diluted peptoids (0–100 µM) in a 96‐well black polypropylene plates (Greiner, Kremsmünster, Austria). Untreated erythrocytes and cells lysed by the addition of 1% Triton X‐100 were used as negative and positive controls, respectively, with the 1% Triton X‐100‐treated wells being accepted to represent 100% hemolysis. The reaction mixture was incubated at 37 °C for 60 min, and the plates were centrifuged at 1000 rpm for 15 min. Aliquots (150 µL) of the supernatant were transferred to fresh 96‐well plates, and the absorbance of each well was measured at 540 nm using a microplate reader. Hemolysis induced by peptoids was calculated as the percentage value of Triton X‐100 lysed cells. The percentage of hemolysis by the extracts was calculated according to the following formula: % hemolysis = [(Abs 540 nm in the peptoid solution – Abs 540 nm in PBS) / (Abs 540 nm in 1% Triton X‐100 – Abs 540 nm in PBS)] × 100. HC10 and HC50 were defined as the peptoid concentrations that caused 10% and 50% hemolysis in rat erythrocytes, respectively. H max indicates the percentage of hemolysis observed at the maximum peptoid concentration, 100 µM throughout this study.

[2] = Analytical reversed-phase HPLC elution (hydrophobicity); type: physicochemical; conditions: Table S1; analytical RP-HPLC, SunFire C18, water/ACN + 0.1% TFA, 5 to 100% B linear over 30 min, 1 mL/min, UV 220 nm; approximate comparison of hydrophobicity
Description: 7. HPLC chromatogram, retention time (tR), and LC-MS data
HPLC analysis of peptoids was conducted using a Waters HPLC system equipped with a Waters 2489 UV/Visible Detector, 1525 Binary HPLC Pump, 2707 Autosampler, 5CH column oven, and a C18 column (SunFire C18, 4.6 × 250 mm, 5 μm; Waters Corp., Milford, MA, USA). The mobile phases were deionized water (A, with + 0.1% TFA) and acetonitrile (ACN; B, with + 0.1% TFA). Before sample injection, the column was conditioned with 5% B for 10 min. Then, the mobile phase was maintained at 5% B for 2 min, followed by increasing B to 100% using a linear gradient over 30 min. At this point, 100% B was maintained for 5 additional min. The flow rate of the mobile phase was 1 mL/min. The sample was detected by measuring absorbance at 220 nm. […]

SMILES	Hmax (100 µM) [1]	HC10 [1]	HC50 [1]	HPLC elution [2]
C[C@@H](c1ccccc1)N(CC(=O)N(CCCCN)CC(=O)N(CC(=O)N(CC(=O)N(CCCCN)CC(=O)N(CC(=O)N(CC(=O)N(CCCCN)CC(=O)N(CC(=O)N(CC(=O)N(CCc1c[nH]c2ccccc12)CC(N)=O)[C@@H](C)c1ccccc1)[C@@H](C)c1ccccc1)[C@@H](C)c1ccccc1)[C@@H](C)c1ccccc1)[C@@H](C)c1ccccc1)[C@@H](C)c1ccccc1)C(=O)CN(C(=O)CNCCCCN)[C@@H](C)c1ccccc1 [peptoid 4] (H-[Nlys][Nspe][Nspe][Nlys][Nspe][Nspe][Nlys][Nspe][Nspe][Nlys][Nspe][Nspe][Gly(N(CH2)2(3-indolyl))]-NH2)	103.2±0.9%	< 6.3 µM	6.7 µM	57.0 % MeCN
C[C@@H](c1ccccc1)N(CC(=O)N(CCCCN)CC(=O)N(CC(=O)N(CC(=O)N(CCCCN)CC(=O)N(CC(=O)N(CC(=O)N(CCCCN)CC(=O)N(CC(=O)N(CC(=O)N(CCc1c[nH]c2ccccc12)CC(N)=O)[C@@H](C)c1ccccc1)[C@@H](C)c1ccccc1)[C@@H](C)c1ccccc1)[C@@H](C)c1ccccc1)[C@@H](C)c1ccccc1)[C@@H](C)c1ccccc1)C(=O)CN(C(=O)CN(CCCCN)C(=O)CNCCc1c[nH]c2ccccc12)[C@@H](C)c1ccccc1 [peptoid 5] (H-[Gly(N(CH2)2(3-indolyl))][Nlys][Nspe][Nspe][Nlys][Nspe][Nspe][Nlys][Nspe][Nspe][Nlys][Nspe][Nspe][Gly(N(CH2)2(3-indolyl))]-NH2)	108.1±2.7%	< 6.3 µM	15.3 µM	58.6 % MeCN
C[C@@H](c1ccccc1)N(CC(N)=O)C(=O)CN(C(=O)CN(CCCCN)C(=O)CN(C(=O)CN(C(=O)CN(CCCCN)C(=O)CN(C(=O)CN(C(=O)CN(CCCCN)C(=O)CN(C(=O)CN(C(=O)CN(CCCCN)C(=O)CN(CCc1c[nH]c2ccccc12)C(=O)CNCCc1c[nH]c2ccccc12)[C@@H](C)c1ccccc1)[C@@H](C)c1ccccc1)[C@@H](C)c1ccccc1)[C@@H](C)c1ccccc1)[C@@H](C)c1ccccc1)[C@@H](C)c1ccccc1)[C@@H](C)c1ccccc1 [peptoid 6]	101.6±5.8%	9.6 µM	22.0 µM	57.2 % MeCN
C[C@@H](c1ccccc1)N(CC(=O)N(CCc1c[nH]c2ccccc12)CC(N)=O)C(=O)CN(CCCCN)C(=O)CN(C(=O)CN(C(=O)CN(CCCCN)C(=O)CN(C(=O)CN(C(=O)CN(CCCCN)C(=O)CN(C(=O)CN(C(=O)CNCCCCN)[C@@H](C)c1ccccc1)[C@@H](C)c1ccccc1)[C@@H](C)c1ccccc1)[C@@H](C)c1ccccc1)[C@@H](C)c1ccccc1)[C@@H](C)c1ccccc1 [peptoid 7] (H-[Nlys][Nspe][Nspe][Nlys][Nspe][Nspe][Nlys][Nspe][Nspe][Nlys][Nspe][Gly(N(CH2)2(3-indolyl))]-NH2)	94.1±4.3%	7.8 µM	23.8 µM	54.1 % MeCN
C[C@@H](c1ccccc1)N(CC(N)=O)C(=O)CN(C(=O)CN(CCCCN)C(=O)CN(CCc1c[nH]c2ccccc12)C(=O)CN(C(=O)CN(CCCCN)C(=O)CN(C(=O)CN(C(=O)CN(CCCCN)C(=O)CN(C(=O)CN(C(=O)CNCCCCN)[C@@H](C)c1ccccc1)[C@@H](C)c1ccccc1)[C@@H](C)c1ccccc1)[C@@H](C)c1ccccc1)[C@@H](C)c1ccccc1)[C@@H](C)c1ccccc1 [peptoid 8]	105.1±2.2%	12.8 µM	28.4 µM	54.5 % MeCN
C[C@@H](c1ccccc1)N(CC(N)=O)C(=O)CN(C(=O)CN(CCCCN)C(=O)CN(CCc1c[nH]c2ccccc12)C(=O)CN(CCc1c[nH]c2ccccc12)C(=O)CN(CCCCN)C(=O)CN(C(=O)CN(C(=O)CN(CCCCN)C(=O)CN(C(=O)CN(C(=O)CNCCCCN)[C@@H](C)c1ccccc1)[C@@H](C)c1ccccc1)[C@@H](C)c1ccccc1)[C@@H](C)c1ccccc1)[C@@H](C)c1ccccc1 [peptoid 12]	87.4±2.4%	29.1 µM	65.2 µM	55.9 % MeCN
C[C@@H](c1ccccc1)N(CC(N)=O)C(=O)CN(C(=O)CN(CCCCN)C(=O)CN(C(=O)CN(C(=O)CN(CCCCN)C(=O)CN(CCc1c[nH]c2ccccc12)C(=O)CN(CCc1c[nH]c2ccccc12)C(=O)CN(CCCCN)C(=O)CN(C(=O)CN(C(=O)CNCCCCN)[C@@H](C)c1ccccc1)[C@@H](C)c1ccccc1)[C@@H](C)c1ccccc1)[C@@H](C)c1ccccc1)[C@@H](C)c1ccccc1 [peptoid 13]	96.8±1.6%	20.2 µM	41.3 µM	56.0 % MeCN
C[C@@H](c1ccccc1)N(CC(=O)N(CCc1c[nH]c2ccccc12)CC(=O)N(CCCCN)CC(=O)N(CC(=O)N(CC(=O)N(CCCCN)CC(=O)N(CC(=O)N(CC(=O)N(CCCCN)CC(=O)N(CC(=O)N(CCc1c[nH]c2ccccc12)CC(N)=O)[C@@H](C)c1ccccc1)[C@@H](C)c1ccccc1)[C@@H](C)c1ccccc1)[C@@H](C)c1ccccc1)[C@@H](C)c1ccccc1)C(=O)CNCCCCN [peptoid 16] (H-[Nlys][Nspe][Gly(N(CH2)2(3-indolyl))][Nlys][Nspe][Nspe][Nlys][Nspe][Nspe][Nlys][Nspe][Gly(N(CH2)2(3-indolyl))]-NH2)	100.3±1.7%	13.8 µM	25.0 µM	54.7 % MeCN
C[C@@H](c1ccccc1)N(CC(=O)N(CCCCN)CC(=O)N(CC(=O)N(CC(=O)N(CCCCN)CC(=O)N(CC(=O)N(CC(=O)N(CCCCN)CC(=O)N(CC(=O)N(CCc1c[nH]c2ccccc12)CC(N)=O)[C@@H](C)c1ccccc1)[C@@H](C)c1ccccc1)[C@@H](C)c1ccccc1)[C@@H](C)c1ccccc1)[C@@H](C)c1ccccc1)C(=O)CN(CCc1c[nH]c2ccccc12)C(=O)CNCCCCN [peptoid 17] (H-[Nlys][Gly(N(CH2)2(3-indolyl))][Nspe][Nlys][Nspe][Nspe][Nlys][Nspe][Nspe][Nlys][Nspe][Gly(N(CH2)2(3-indolyl))]-NH2)	87.3±6.7%	18.0 µM	39.7 µM	56.0 % MeCN
C[C@@H](c1ccccc1)N(CC(=O)N(CCCCN)CC(=O)N(CC(=O)N(CC(=O)N(CCCCN)CC(=O)N(CCc1c[nH]c2ccccc12)CC(=O)N(CCc1c[nH]c2ccccc12)CC(N)=O)[C@@H](C)c1ccccc1)[C@@H](C)c1ccccc1)C(=O)CN(C(=O)CN(CCCCN)C(=O)CN(CCc1c[nH]c2ccccc12)C(=O)CN(CCc1c[nH]c2ccccc12)C(=O)CNCCCCN)[C@@H](C)c1ccccc1 [peptoid 18] (H-[Nlys][Gly(N(CH2)2(3-indolyl))][Gly(N(CH2)2(3-indolyl))][Nlys][Nspe][Nspe][Nlys][Nspe][Nspe][Nlys][Gly(N(CH2)2(3-indolyl))][Gly(N(CH2)2(3-indolyl))]-NH2)	103.5±4.3%	14.3 µM	37.8 µM	53.8 % MeCN
C[C@@H](c1ccccc1)N(CC(=O)N(CCCCN)CC(=O)N(CC(=O)N(CC(=O)N(CCCCN)CC(=O)N(CCc1c[nH]c2ccccc12)CC(=O)N(CCc1c[nH]c2ccccc12)CC(=O)N(CCCCN)CC(=O)N(CCc1c[nH]c2ccccc12)CC(=O)N(CCc1c[nH]c2ccccc12)CC(N)=O)[C@@H](C)c1ccccc1)[C@@H](C)c1ccccc1)C(=O)CN(C(=O)CNCCCCN)[C@@H](C)c1ccccc1 [peptoid 19] (H-[Nlys][Nspe][Nspe][Nlys][Nspe][Nspe][Nlys][Gly(N(CH2)2(3-indolyl))][Gly(N(CH2)2(3-indolyl))][Nlys][Gly(N(CH2)2(3-indolyl))][Gly(N(CH2)2(3-indolyl))]-NH2)	101.5±1.3%	3.8 µM	12.5 µM	52.8 % MeCN
C[C@@H](c1ccccc1)N(CC(N)=O)C(=O)CN(C(=O)CN(CCCCN)C(=O)CN(CCc1c[nH]c2ccccc12)C(=O)CN(CCc1c[nH]c2ccccc12)C(=O)CN(CCCCN)C(=O)CN(CCc1c[nH]c2ccccc12)C(=O)CN(CCc1c[nH]c2ccccc12)C(=O)CN(CCCCN)C(=O)CN(C(=O)CN(C(=O)CNCCCCN)[C@@H](C)c1ccccc1)[C@@H](C)c1ccccc1)[C@@H](C)c1ccccc1 [peptoid 20]	106.7±3.5%	8.2 µM	33.9 µM	52.7 % MeCN
